Reference: ChEMBL document CHEMBL1140285, “Synthesis and ocular effects of imidazole nitrolic acids” (2005)
The source made the active and inactive calls. No cut-off for these calls is given here.

Columns and labels:
Oryctolagus cuniculus [1] = experiment: Increase in NOx concentration in porcineiris-ciliary body after administration of compound at the concentrations of 10 uM and 100 uM; control value is 0.36; NE is no effect on IOP; assay type: functional
Sus scrofa [2] = experiment: Increase in cGMP concentration in porcineiris-ciliary body after administration of compound at the concentrations of 10 uM; control value is 0.46
Oryctolagus cuniculus [3] = experiment: Maximal decrease in IOP observed with in 24 hours after intravitreal administration of the compound; NE is no effect on IOP; assay type: functional, organism-based
Sus scrofa [4] = experiment: Increase in cGMP concentration in porcineiris-ciliary body after administration of compound at the concentrations of 100 uM; control value is 0.46
Oryctolagus cuniculus [5] = experiment: Increase in nitrite concentration in porcineiris-ciliary body after administration of compound at the concentrations of 10 uM and 100 uM; control value is 0.15; NE is no effect on IOP; assay type: functional
Sus scrofa [6] = experiment: Increase in nitrite concentration in porcineiris-ciliary body after administration of compound at the concentrations of 100 uM; control value is 0.15
Sus scrofa [7] = experiment: Increase in nitrite concentration in porcineiris-ciliary body after administration of compound at the concentrations of 10 uM; control value is 0.15
Sus scrofa [8] = experiment: Increase in NOx concentration in porcineiris-ciliary body after administration of compound at the concentrations of 10 uM; control value is 0.36
Sus scrofa [9] = experiment: Increase in NOx concentration in porcineiris-ciliary body after administration of compound at the concentrations of 100 uM; control value is 0.36
Oryctolagus cuniculus [10] = experiment: Increase in cGMP concentration in aqueous humor after intravitreal administration of compound in rabbits; control value is 9.17; assay type: functional, Aqueous humor of eyeball
Oryctolagus cuniculus [11] = experiment: Increase in nitrite concentration in aqueous humor after intravitreal administration of compound in rabbits; control value is 1.32; assay type: functional, Aqueous humor of eyeball
Oryctolagus cuniculus [12] = experiment: Maximal decrease in IOP observed with […] after intravitreal administration of the compound at the concentration of 20 mM; assay type: functional
Oryctolagus cuniculus [13] = experiment: Increase in NOx concentration in aqueous humor after intravitreal administration of compound in rabbits; control value is 500.86; assay type: functional, Aqueous humor of eyeball
Oryctolagus cuniculus [14] = experiment: Increase in NOx concentration in plasma after intravitreal administration of compound in rabbits; control value is 408.59; assay type: functional
Oryctolagus cuniculus [15] = experiment: Increase in nitrite concentration in plasma after intravitreal administration of compound in rabbits; control value is 0.98; assay type: functional
Oryctolagus cuniculus [16] = experiment: Maximal decrease in IOP observed with in 24 hours after intravitreal administration of the compound;NE is no effect on IOP; assay type: functional, organism-based
Oryctolagus cuniculus [17] = experiment: Increase in NOx concentration in porcineiris-ciliary body after administration of compound at the concentrations of 10 uM and 100 uM; control value is 0.36; assay type: functional
Oryctolagus cuniculus [18] = experiment: Increase in cGMP concentration in aqueous humor after intravitreal administration of compound in rabbits; control value is 14.31; assay type: functional, Aqueous humor of eyeball
Oryctolagus cuniculus [19] = experiment: Increase in nitrite concentration in aqueous humor after intravitreal administration of compound in rabbits; control value is 2.40; assay type: functional, Aqueous humor of eyeball
Oryctolagus cuniculus [20] = experiment: Maximal decrease in IOP observed with in 24 hours after intravitreal administration of the compound at the concentration of 20 mM; assay type: functional
Oryctolagus cuniculus [21] = experiment: Increase in NOx concentration in aqueous humor after intravitreal administration of compound in rabbits; control value is 450.31; assay type: functional, Aqueous humor of eyeball
Oryctolagus cuniculus [22] = experiment: Increase in nitrite concentration in plasma after topical administration of compound in rabbits; control value is 0.98; assay type: functional
Oryctolagus cuniculus [23] = experiment: Increase in NOx concentration in plasma after topical administration of compound in rabbits; control value is 408.59; assay type: functional
Oryctolagus cuniculus [24] = experiment: Increase in nitrite concentration in aqueous humor after topical administration of compound in rabbits; control value is 1.31; assay type: functional, Aqueous humor of eyeball
Oryctolagus cuniculus [25] = experiment: Increase in NOx concentration in aqueous humor after topical administration of compound in rabbits; control value is 309.09; assay type: functional, Aqueous humor of eyeball
Oryctolagus cuniculus [26] = experiment: Increase in cGMP concentration in aqueous humor after topical administration of compound in rabbits; control value is 16.10; assay type: functional, Aqueous humor of eyeball
Oryctolagus cuniculus [27] = experiment: Increase in NOx concentration in porcineiris-ciliary body after administration of compound at the concentrations of 10 uM and 100 uM; NE is no effect; assay type: functional
Oryctolagus cuniculus [28] = experiment: Maximal decrease in IOP observed with in 24 hours after intravitreal administration of the compound; NE is no effect; assay type: functional, organism-based

| Structure (SMILES) | cGMP concentration (Sus scrofa [2]) [pmol/mg prot.] | Maximal decrease in IOP (Oryctolagus cuniculus [3]) | cGMP concentration (Sus scrofa [4]) [pmol/mg prot.] | Increase in concentration (Sus scrofa [6]) [µM] | Increase in concentration (Sus scrofa [7]) [µM] | Increase in concentration (Sus scrofa [8]) [µM] | Increase in concentration (Sus scrofa [9]) [µM] | other results |
| --- | --- | --- | --- | --- | --- | --- | --- | --- |
| O=Cc1cncn1Cc1ccccc1 | 0.3 | No effect | 0.38 | – | – | – | – | Increase in concentration (Oryctolagus cuniculus [1]): No effect; Increase in concentration (Oryctolagus cuniculus [5]): No effect |
| O/N=C/c1cncn1Cc1ccccc1 [listing 1 of 2 here] | 0.3 | – | – | – | – | – | – | – |
| O/N=C/c1cncn1Cc1ccccc1 [listing 2 of 2 here] | – | No effect | – | – | – | – | – | Increase in concentration (Oryctolagus cuniculus [1]): No effect; Increase in concentration (Oryctolagus cuniculus [5]): No effect |
| Cn1cncc1C=O | 0.38 | No effect | 0.5 | 0.62 | 0.34 | 0.63 | 0.09 | – |
| Cn1cncc1/C(=N/O)[N+](=O)[O-].O=[N+]([O-])O | 1.01 | – | 2.76 | 28.05 | 2.68 | 4.87 | 51.95 | Increase in concentration (Oryctolagus cuniculus [10]): 9.41 pmol/mg prot.; Increase in concentration (Oryctolagus cuniculus [11]): 10.32 µM; Maximal decrease in IOP (Oryctolagus cuniculus [12]): -4 mmHg; Increase in concentration (Oryctolagus cuniculus [13]): 524.29 µM; Increase in concentration (Oryctolagus cuniculus [14]): 425.49 µM; Increase in concentration (Oryctolagus cuniculus [15]): 0.75 µM |
| O=[N+]([O-])/C(=N\O)c1c[nH]c(-c2ccccc2)n1 | – | No effect | – | – | – | – | – | – |
| Cc1[nH]cnc1/C(=N/O)[N+](=O)[O-] | 0.6 | – | 1.22 | 31.22 | 3.62 | 3.06 | 30.62 | Maximal decrease in IOP (Oryctolagus cuniculus [16]): No effect |
| Cn1cncc1/C(=N/O)[N+](=O)[O-] [listing 1 of 2 here] | 0.87 | – | 1.19 | 32.07 | 3.46 | 3.38 | 29.96 | – |
| O=[N+]([O-])/C(=N\O)c1c[nH]cn1 | 0.51 | – | 0.55 | 0.18 | 0.18 | – | – | Increase in concentration (Oryctolagus cuniculus [17]): No effect; Increase in concentration (Oryctolagus cuniculus [14]): 469.42 µM; Increase in concentration (Oryctolagus cuniculus [18]): 21.77 pmol/mg prot.; Increase in concentration (Oryctolagus cuniculus [19]): 2.49 µM; Increase in concentration (Oryctolagus cuniculus [15]): 1.38 µM; Maximal decrease in IOP (Oryctolagus cuniculus [20]): -7.3 mmHg; Increase in concentration (Oryctolagus cuniculus [21]): 451.94 µM |
| Cn1cncc1/C(=N/O)[N+](=O)[O-] [listing 2 of 2 here] | – | No effect | – | – | – | – | – | – |
| Cl.O/N=C/c1cncn1Cc1ccccc1 | 0.58 | – | 0.58 | – | – | 1.97 | 2.21 | – |
| O=[N+]([O-])/C(=N\O)c1cncn1Cc1ccccc1 | 0.46 | No effect | 3.29 | 24.44 | 2.15 | 2.01 | 24.6 | Increase in concentration (Oryctolagus cuniculus [22]): 0.87 µM; Increase in concentration (Oryctolagus cuniculus [23]): 379.43 µM; Increase in concentration (Oryctolagus cuniculus [24]): 1.61 µM; Increase in concentration (Oryctolagus cuniculus [25]): 302.19 µM; Increase in concentration (Oryctolagus cuniculus [26]): 16.79 pmol/mg prot. |
| Cn1cncc1/C=N/O | 0.51 | No effect | 0.58 | – | – | – | – | Increase in concentration (Oryctolagus cuniculus [1]): No effect; Increase in concentration (Oryctolagus cuniculus [5]): No effect |
| O=[N+]([O-])/C(=N\O)c1ncc[nH]1 | – | – | – | – | – | – | – | Increase in concentration (Oryctolagus cuniculus [27]): inactive; Maximal decrease in IOP (Oryctolagus cuniculus [28]): inactive |
